PubChem BioAssay (NCI)
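Briefly, cells in 96-well plates were exposed to five compound concentrations for 48 h, and endpoints were estimated by linear interpolation. At the GI50, growth is halved. TGI: total growth inhibition.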

Legend:
Test in all cases: NCI tumour cell line growth inhibition, 48 h
[1] = system: HOP-62 NSCLC
[2] = system: CAKI-1 renal
[3] = system: PC-3 prostate
[4] = system: MDA-N
[5] = system: OVCAR-4 ovarian
[6] = system: SF-539 CNS
[7] = system: UO-31 renal
[8] = system: IGROV1 ovarian
[9] = system: KM12 colon

SMILES | TGI [1] [µM] | TGI [2] [µM] | TGI [3] [µM] | TGI [4] [µM] | TGI [5] [µM] | TGI [6] [µM] | TGI [7] [µM] | TGI [8] [µM] | TGI [9] [µM] | GI50 [1] [µM] | GI50 [2] [µM] | GI50 [3] [µM] | GI50 [5] [µM] | GI50 [6] [µM] | GI50 [9] [µM] | GI50 [7] [µM] | GI50 [8] [µM]
O=C1C2C=CC1C1C(=O)OC(=O)C21 (centres undefined) | > 100 | > 100 | > 100 | > 100 | > 100 | > 100 | > 100 | > 100 | > 100 |  |  |  |  |  |  |  | 
COc1cc(N=NN(C)C)c(C(C)c2c3cc(OC)c(OC)cc3cc[n+]2C)cc1OC (centres undefined) | > 100 | > 100 | > 100 | > 100 | > 100 | 47.3 | > 100 | > 100 | 54.6 |  |  |  |  |  |  |  | 
O=C1c2cc3ccccc3cc2C2(c3ccc(Cl)cc3)N[C@H]3CCCC[C@@H]3N12 (some centres undefined) | 20.3 | 70.3 | 42.6 | 57.8 | 21.3 | 21.8 | 57.6 | 30.6 | 48.2 |  |  |  |  |  |  |  | 
Cc1ccc2c(c1)NC(=O)CCSSCCC(=O)N2 | > 100 | > 100 | > 100 | > 100 | > 100 | > 100 | > 100 | > 100 | > 100 |  |  |  |  |  |  |  | 
COC(=O)C(CCC1C=CCC1)N=Cc1ccccc1 (centres undefined) | > 100 | > 100 | > 100 | > 100 | > 100 | > 100 | > 100 | > 100 | > 100 |  |  |  |  |  |  |  | 
NC1C/C(=N\O)c2c(I)sc(I)c21 (centres undefined) | 34.4 | 28.6 | 31.6 | > 54 | > 64.9 | 20.3 | 30.1 | 30.8 | 27.7 |  |  |  |  |  |  |  | 
CC(=O)Oc1ccc2c(c1)c1c(=O)oc(N(C)C)nc1n2Cc1ccccc1 | > 100 | > 73.3 | > 100 | > 100 | > 100 | > 100 | > 81.8 | > 100 | > 100 |  |  |  |  |  |  |  | 
O=C(O)CSc1cc(-c2ccccc2)nc2ccccc12 | > 100 | > 100 | > 100 | > 100 | > 100 |  | > 100 | > 100 | > 100 |  |  |  |  |  |  |  | 
O=c1[nH]c2ccc(CC(=S)N3CCOCC3)cc2s1 | > 100 | > 100 | > 100 | > 100 |  | > 100 |  | > 100 | > 100 |  |  |  |  |  |  |  | 
CCOP(=O)(/C=C\n1cnc2c(=O)n(C(C)=O)c(N)nc21)OCC | > 100 | > 100 | > 100 | > 100 | > 100 | > 100 |  | > 100 | > 100 |  |  |  |  |  |  |  | 
CC(=O)O[C@H]1CC[C@]2(C)[C@H]3CC[C@@H]4[C@H]5[C@H](C(C)C)CC[C@]5(C(=O)OCC(CO)(CO)N=C(N)N)CC[C@@]4(C)[C@]3(C)CC[C@H]2C1(C)C | 3.56 | 2.98 | 3.09 |  | 3.32 | 3.34 |  |  | 3.36 | 1.82 | 1.46 | 1.59 | 1.68 | 1.83 | 1.75 |  | 
O=C1OCC(C#Cc2ccccc2)=C1Cl | 1.7 | 26.7 | 5.67 |  | 73.1 | 19.5 | > 100 | > 100 | 12.1 | 0.388 | 3.27 | 1.99 | 15.5 | 2.52 | 2.65 | 2.15 | 1.88
C1COC(NC(C2CC2)C2CC2)=N1 |  | > 100 | > 100 | > 100 | > 100 | > 100 | > 100 | > 100 | > 100 |  |  |  |  |  |  |  | 
CC[C@@]1(O)C(=O)OCc2c1cc1n(c2=O)Cc2c-1nc1ccccc1c2CC[Si](C)(C)C | 0.458 | 0.207 | > 56.9 | > 100 |  | 3.32 | 0.056 | > 100 |  |  |  |  |  |  |  |  | 
N#Cc1c(-c2ccccc2)/c(=C\O)c(=O)n2c1nc1ccccc12 |  | > 100 | > 100 | > 100 | > 100 | > 100 | > 100 | > 100 | > 100 |  |  |  |  |  |  |  | 
COc1cccc2cc(C(N)=O)c(=N)oc12 |  | > 100 | > 100 | > 100 | > 100 | > 100 |  | > 100 | > 100 |  |  |  |  |  |  |  | 
C=C(C=O)c1c2c(nc3ccccc13)C(=O)c1ccccc1C2=O | 2.48 | 0.795 | 10.6 |  |  | 0.605 | > 29 | 2.19 | 2.71 |  |  |  |  |  |  |  | 
O=C(/C=C/c1ccc(O)c(O)c1)OCCc1cccc2ccccc12 |  | 20.7 | 16.3 | 5.26 | 23.9 | 18.2 | 18.4 | 14.5 | 23.4 |  |  |  |  |  |  |  | 
CCSC1=N/C(=C\c2ccccc2O)C(Nc2ccc(C)cc2)=N1 | > 100 | > 100 | > 100 |  |  | > 100 | > 100 | > 100 | > 100 |  |  |  |  |  |  |  | 
C/C(=N\Nc1ccc([N+](=O)[O-])cc1[N+](=O)[O-])c1ccc2ccccc2n1 |  | > 100 | > 100 | > 100 |  | > 100 | > 100 | > 100 | > 100 |  |  |  |  |  |  |  | 
O=C1CCCc2c1c1c(n2Cc2ccccc2)-c2ccccc2C1=O | 50.2 | 46.2 | 96.6 |  | 36.5 | 48.6 | > 100 | 72.1 | 47 |  |  |  |  |  |  |  | 
COc1ccc(/C=C2\CSC/C(=C\c3ccc(OC)c(OC)c3OC)C2=O)c(OC)c1OC | > 100 |  | > 100 | > 100 |  | 88.6 | > 100 | > 100 | > 100 |  |  |  |  |  |  |  | 
N#CCC(=O)Nn1c(CC#N)nnc1Cc1ccccc1 | > 100 | > 100 | > 100 | > 100 |  | > 100 | > 100 | > 100 | > 100 |  |  |  |  |  |  |  | 
CC1C(c2ccc3c(c2)OCO3)c2cc3c(cc2OC1N1CCCC1)OCO3 (centres undefined) | > 100 | 38.6 | > 100 | 52.3 |  | 50.9 | 73 | > 100 | > 100 |  |  |  |  |  |  |  | 
